According to US20110152362A1, “METHODS OF TREATING EPILEPTOGENESIS AND EPILEPSY” (priority 2004, published 2011):
Values joined by “and” are separate entries in the source; they are usually repeats but may differ in a detail not shown here. Identical values can stand only once.

Legend:
[1] = system: rats subjected to Li-pilo induced SE; test: Example 1: Timm staining, mossy fiber sprouting in hippocampus; type: in vivo, rat; settings: pilo-DZP rats
Method: At 2 months after the onset of spontaneous recurrent seizures, mossy fiber sprouting was examined on rats in the chronic period exposed to the test compound or DZP and in 3 saline-saline rats. Animals were deeply anaesthetized and perfused transcardially with saline followed by 100 ml of 1.15% (w/v) Na2S in 0.1 M phosphate buffer, and 100 ml of 4% (v/v) formaldehyde in 0.1 M phosphate buffer. Brains were removed from skull, post-fixed in 4% formaldehyde during 3-5 h and 40 μm sections were cut on a sliding vibratome and mounted on gelatin-coated slides.
The following day, sections were developed in the dark in a 26° C. solution of 50% (w/v) arabic gum (160 ml), sodium citrate buffer (30 ml), 5.7% (w/v) hydroquinone (80 ml) and 10% (w/v) silver nitrate (2.5 ml) during 40-45 min. The sections were then rinsed with tap water at 40° C. during at least 45 min, rinsed rapidly with distilled water and allowed to dry. They were dehydrated in ethanol and coverslipped.
Mossy fiber sprouting was evaluated according to criteria previously described in dorsal hippocampus (Cavazos et al., 1991, J Neurosci 11:2795-2803.), which are follows: 0—no granules between the tips and crest of the DG; 1—sparse granules in the supragranular region in a patchy distribution between the tips and crest of DG; 2—more numerous granules in a continuous distribution between the tips and crest of DG; 3—prominent granules in a continuous pattern between tips and crest, with occasional patches of confluent granules between tips and crest; 4—prominent granules that form a confluent dense laminar band between tips and crest and 5—confluent dense laminar band of granules that extends into the inner molecular layer.

[2] = system: rats subjected to Li-pilo induced SE; test: Example 1: quantification of cell densities in hippocampus, thalamus and cortex after Li-pilo SE; type: in vivo, rat; settings: pilo-DZP rats
Method: (§1) The effects of increasing doses of the Test Compound were studied on 3 groups of rats. The animals of the first group received 10 mg/kg of the test compound, i.p., 1 h after the onset of SE (pilo-TC10) while the animals of groups 2 and 3 received 30 and 60 mg/kg of the Test Compound (pilo-TC30 and pilo-TC60), respectively.
(§2) The control group received saline instead of pilocarpine and the Test Compound (saline-saline). […] Pilo-DZP received a second injection of 1 mg/kg DZP on the day of SE at about 10 h after the first one. Thereafter, Pilo-DZP and saline-saline rats received twice daily an equivalent volume of saline.
Quantification of cell densities was performed at 6 days after SE on 8 pilo-DZP, 8 pilo-TC10, 7 pilo-TC30, 7 pilo-TC60, and 6 saline-saline rats. […] Counts involved only cells larger than 10 μm, smaller ones being considered as glial cells.
For the comparison of the characteristics of SE in pilo-saline and pilo-test compound animals, a non-paired Student's t-test was used. The comparison between the number of rats seizing in both groups was performed by means of a Chi square test. For neuronal damage, statistical analysis between groups was performed using ANOVA followed by a Fisher's test for multiple comparisons using the Statview software (Fisher R A, 1946a, Statistical Methods for Research Workers (10th edition) Oliver & Boyd, Edinburgh; Fisher R A, 1946b, The Design of Experiments (4th edition) Oliver & Boyd, Edinburgh)

[3] = system: rats subjected to Li-pilo induced SE; test: Example 1: mortality induced by lithium-pilocarpine status epilepticus; type: in vivo, rat; settings: pilo-DZP, 2 mg/kg i.m. 1 h after onset of SE
Method: (§3) The bilateral EEG cortical activity was recorded during the whole duration of SE and behavioral changes were noted.
as §1, §2

[4] = system: rats subjected to li-pilo SE; test: Example 2: quantification of cell densities 14 days after li-pilo SE;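 also: Thionine-stained 20 µm brain sections, neurons with cell bodies above 10 µm counted, value is the mean of 12 fields per structure from three adjacent sections, both sides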
Method: All rats received lithium chloride (3 meq/kg, i.p., Sigma, St Louis, Mo., U.S.A.) and about 20 h later, all animals received also methylscopolamine bromide (1 mg/kg, s.c., Sigma) that was administered to limit the peripheral effects of the convulsant. […] The effects of increasing doses of TC were studied in 5 groups of rats. […] The control group received vehicle instead of pilocarpine and TC.
For neuronal counting, animals were deeply anesthetized with 1.8 g/kg pentobarbital (Dolethal®, Vetoquinol, Lure, France). Brains were then removed and frozen. Serial 20 μm slices were cut in a cryostat, air-dried during several days before thionine staining. […] The grid of counting was placed on a well defined area of the cerebral structure of interest and counting was carried out with a microscopic enlargement of 200- or 400-fold defined for each single cerebral structure. Cell counts were performed twice on each side of three adjacent sections for each region by a single observer unaware of the animal's treatment. The number of cells obtained in the 12 counted fields in each cerebral structure was averaged. This procedure was used to minimize the potential errors that could result from double counting leading to overestimation of cell numbers. […] Counts involved only neurons with cell bodies larger than 10 μm. Cells with small cell bodies were considered as glial cells and were not counted.
For neuronal damage and epileptogenesis, statistical analysis between groups was performed by means of a one-way analysis of variance followed by a post-hoc Dunnett or Fisher test using the Statistica software.

[5] = system: rats subjected to Li-pilo induced SE; test: Example 1: latency to and frequency of spontaneous recurrent seizures (SRS), lithium-pilocarpine model; type: in vivo, rat
Method: as §3, §1, §2
The effects of the test compound on the EEG and on the latency to occurrence of SRS were investigated by daily video recording of the animals for 10 h per day and the recording of the electrographic activity twice a week for 8 h.
To calculate the frequency of SRS in pilocarpine-exposed rats, the seizure severity and distinguished stage III (clonic seizures of facial muscles and anterior limbs) and stage IV-V seizures (rearing and falling) was measured. The frequency of stage III SRS per week in pilo-DZP and pilo-test compound rats was variable amongst the groups. It was low, constant in the pilo-DZP and pilo-TC60 (with early SRS onset) groups during the first 3 weeks and had disappeared during the 4th week in the pilo-DZP group. […] The frequency of more severe stage IV-V SRS was highest during the first week in most groups, except pilo-TC30 and TC60 with late seizure onset where the SRS frequency was constant over the whole 4 weeks in TC30 group and over the first two weeks in the pilo-TC60 group with late SRS onset in which no stage IV-V seizures where no seizures recorded after the second week.

[6] = system: rats subjected to li-pilo SE; test: Example 2: mortality over the first 48 h after Li-pilo SE; type: in vivo, rat; design: concentration or dose not given beside the values; settings: DZP
[7] = system: rats subjected to li-pilo SE; test: Example 2: latency to and frequency of spontaneous seizures (video recording); type: in vivo, rat; settings: DZP group, 2.5 mg/kg i.m.; 2.5 mg/kg
Method: The effects of DZP and the 4 doses of TC on epileptogenesis were investigated by daily video recording of the animals for 10 h per day. Video recording was performed for 4 weeks during which the occurrence of the first seizure was noted as well as the total number of seizures over the whole period. Animals were then taken off the video recording system and kept for 4 additional weeks in our animal facilities before they were sacrificed after a total period of 8 weeks of epilepsy.

[8] = pilo-DZP (DZP 2.5 mg/kg i.m.), 14 days after li-pilo SE

CN1C(=O)CN=C(c2ccccc2)c2cc(Cl)ccc21 [DZP, diazepam, reference compound]
Timm score in the upper blade of the dentate gyrus, mean [1]: 2.8±0.8
cell loss vs saline-saline, CA1 pyramidal cell layer [2]: 70% and 75%
cell loss vs saline-saline, CA3a [2]: 54%
cell loss vs saline-saline, CA3b [2]: 31%
cell loss vs saline-saline, hilus of dentate gyrus [2]: 73%
cell loss vs saline-saline, lateral thalamic nucleus [2]: 91%
cell loss vs saline-saline, mediodorsal thalamic nucleus [2]: 56%
cell loss vs saline-saline, piriform cortex layer II [2]: 53%
cell loss vs saline-saline, ventral entorhinal cortex layers III-IV [2]: 44%
cell loss, piriform cortex layers III-IV [2]: total
damage vs saline-saline, dorsal entorhinal cortex layer II [2]: 9%
damage vs saline-saline, dorsal entorhinal cortex layers III-IV [2]: 15%
damage, ventral entorhinal cortex layer II [2]: totally preserved
mortality during the first 48 h after SE [3]: 23%
neurons surviving in entorhinal cortex, dorsal and ventral ([4]; DZP group, 14 days after SE): 27-81%
damage vs control, dorsal entorhinal cortex layer II ([4]; DZP rats, 14 days after SE): 18%
damage vs control, dorsal entorhinal cortex layers III-IV ([4]; DZP rats, 14 days after SE): 24%
damage vs control, ventral entorhinal cortex layer II ([4]; DZP rats, 14 days after SE): 22% and 19%
damage vs control, ventral entorhinal cortex layers III/IV ([4]; DZP rats, 14 days after SE): 74% and 73%
neuronal damage, amygdala central nucleus ([4]; DZP rats, 14 days after SE): no neuronal damage
neuronal drop out vs control, CA1 pyramidal cell layer ([4]; DZP rats, 14 days after SE): 85%
neuronal drop out vs control, amygdala basolateral nucleus ([4]; DZP rats, 14 days after SE): 73%
neuronal drop out vs control, amygdala medial dorsal anterior nucleus ([4]; DZP rats, 14 days after SE): 53%
neuronal drop out vs control, thalamus central medial nucleus ([4]; DZP rats, 14 days after SE): 34%
neuronal drop out vs control, thalamus dorsolateral medial dorsal nucleus ([4]; DZP rats, 14 days after SE): 40%
neuronal drop out vs control, thalamus mediodorsal central nucleus ([4]; DZP rats, 14 days after SE): 18%
neuronal drop out vs control, thalamus mediodorsal lateral nucleus ([4]; DZP rats, 14 days after SE): 24%
neuronal loss vs control, CA3 region ([4]; DZP rats, 14 days after SE): 40%
neuronal loss vs control, amygdala medial ventral posterior nucleus ([4]; DZP rats, 14 days after SE): 38%
neuronal loss vs control, hilus of dentate gyrus ([4]; DZP rats, 14 days after SE): 65% and 66%
neuronal loss vs control, piriform cortex dorsal layer II ([4]; DZP rats, 14 days after SE): 66%
neuronal loss vs control, piriform cortex layer III ([4]; DZP rats, 14 days after SE): 94%
neuronal loss vs control, piriform cortex ventral layer II ([4]; DZP rats, 14 days after SE): 89%
neuronal loss vs control, thalamus mediodorsal nucleus ([4]; DZP rats, 14 days after SE): 49%
neuronal loss vs control, ventral lateral division of the dorsolateral nucleus ([4]; DZP rats, 14 days after SE): 90%
number of neuronal cell bodies: Amygdala Basolateral [4, 8]: 12.8 ± 5.3
number of neuronal cell bodies: Amygdala Medial, dorsal anterior [4, 8]: 40.0 ± 2.5
number of neuronal cell bodies: Amygdala Medial, ventral posterior [4, 8]: 21.8 ± 2.4
number of neuronal cell bodies: Cerebral cortex Entorhinal, layer II, dorsal [4, 8]: 23.5 ± 0.7
number of neuronal cell bodies: Cerebral cortex Entorhinal, layer II, ventral [4, 8]: 21.7 ± 1.3
number of neuronal cell bodies: Cerebral cortex Entorhinal, layer III/IV, dorsal [4, 8]: 22.3 ± 0.5
number of neuronal cell bodies: Cerebral cortex Entorhinal, layer III/IV, ventral [4, 8]: 7.7 ± 2.3
number of neuronal cell bodies: Cerebral cortex Piriform, layer II, dorsal [4, 8]: 12.6 ± 4.2
number of neuronal cell bodies: Cerebral cortex Piriform, layer II, ventral [4, 8]: 3.6 ± 0.7
number of neuronal cell bodies: Cerebral cortex Piriform, layer III [4, 8]: 1.2 ± 1.2
number of neuronal cell bodies: Hippocampus CA1 area [4, 8]: 10.9 ± 1.9
number of neuronal cell bodies: Hippocampus CA3 area [4, 8]: 31.3 ± 2.9
number of neuronal cell bodies: Hippocampus Hilus [4, 8]: 33.5 ± 3.0
number of neuronal cell bodies: Thalamus Central medial [4, 8]: 74.2 ± 7.4
number of neuronal cell bodies: Thalamus Dorsolateral, medial, dorsal [4, 8]: 61 ± 6.3
number of neuronal cell bodies: Thalamus Dorsolateral, ventral lateral [4, 8]: 9.7 ± 2.5
number of neuronal cell bodies: Thalamus Mediodorsal central [4, 8]: 26.3 ± 1.8
number of neuronal cell bodies: Thalamus Mediodorsal lateral [4, 8]: 19.6 ± 0.8
number of neuronal cell bodies: Thalamus Mediodorsal medial [4, 8]: 16.4 ± 1.9
frequency of stage IV-V SRS ([5]; first week, pilo-DZP group): 11.3 SRS per week
latency to SRS ([5]; pilo-DZP rats): 18.2 ± 6.9 days
mortality over the first 48 h after SE ([6]; group for cell counting at 14 days): 36%
mortality over the first 48 h after SE ([6]; group for latency to SRS and late cell counting): 7%
Latency to the first spontaneous seizure [7]: 15.5 ± 2.3 days and 15.5 ± 2.34 days
